According to patent publication US20180042851A1, “SOLID DISPERSIONS” (FMC Corporation, priority 2015, published 2018):
Where two headings read alike, the source gives them in different places.

Description: In vitro dissolution studies of the lovastatin:alginate solid dispersions produced above were carried out using the paddle method equipped with a USP II apparatus at 37.5±0.5° C. and a paddle speed of 50 rpm. The appropriate amount of lovastatin solid dispersion (containing 60 mg lovastatin) was added into 900 mL dissolution medium (0.05M pH6.8 phosphate buffer with 0.1% SDS as non-sink condition). Samples (6 mL) were collected at predetermined time intervals and immediately filtered through a 0.15 μm syringe filter, the first 2 mL of filtrate was discarded and the remaining filtrate was collected for analysis at 237 nm using a UV spectrophotometer (UV-2000, UNIC Instrument Corp., Shanghai, China). Meanwhile, an equal volume of fresh dissolution medium was added.

Cumulative Release (%) (0 minutes, 60 mg lovastatin in 900 mL pH6.8 phosphate buffer with 0.1% SDS, 37.5° C., 50 rpm): 0%
Cumulative Release (%) (5 minutes, pH6.8 phosphate buffer with 0.1% SDS, non-sink): 13.52%
Cumulative Release (%) (10 minutes, pH6.8 phosphate buffer with 0.1% SDS, non-sink): 18.29%
Cumulative Release (%) (15 minutes, pH6.8 phosphate buffer with 0.1% SDS, non-sink): 22.81%
Cumulative Release (%) (30 minutes, pH6.8 phosphate buffer with 0.1% SDS, non-sink): 29.77%
Structure (SMILES): CC[C@H](C)C(=O)O[C@H]1C[C@@H](C)C=C2C=C[C@H](C)[C@H](CC[C@@H]3C[C@@H](O)CC(=O)O3)[C@H]21 [Drug Alone, lovastatin]
